Results taken from patent publication US9340549B2, “Oxazolidinone compounds and derivatives thereof” (priority 2012, dated 2016).
pEC50, pIC50: −log10 of the molar value. Where two headings read alike, the source gives them in different places.

Tests used:
[1] = system: total β-catenin in SW480 colorectal cells; assay: cells; assay type: cell-based; settings: Homo sapiens
Experimental: Total β-Catenin MSD 96-Well Plate Assay for SW480 Cells
SW480 colorectal cells were seeded at a density of 10,000/well in CellBIND 96-well plates (Corning catalog no. 3300) in 60 μL of normal growth medium (MEM alpha supplemented with 10% heat inactivated FBS, GlutaMAX, pyruvate, and 10 mM HEPES).
A 10-point, 3-fold dilution series for each TNKS inhibitor was constructed in a 96-well “stock” plate. […] The plates were incubated at 37° C. for 40 to 48 hours. The media was removed from the CellBIND plate via plate inversion and gentle shaking and the inverted plate was touched to a paper towel and immediately placed on ice. […] Plates containing cell lysates were sealed and shaken for one hour at 4° C. and then quickly frozen in a −80° C. for approximately 15 to 30 minutes followed by gradually thawing at 4° C. Finally, lysate containing plates were centrifuged @1000×g (2073 rpm) for 10 minutes at 4° C.
The sealed MSD plate was incubated overnight in a cold room with gentle shaking. The MSD plate was then blocked with 150 μL of Blocker “A” per well and incubated overnight at 4° C. with vigorous shaking. The blocked MSD plate was washed 4 times with 150 μL/well TBS-T wash buffer (150 mM NaCl, 50 mM Tris, pH 7.5, 0.02% Tween-20). Cell lysates (75 μL) were transferred to prepared MSD plates and incubated at 4° C. ON with gentle shaking. […] The detection antibody was incubated for 1 hour at room temperature with vigorous shaking after which plates were washed 3 times with 150 μL/well TBS-T wash buffer. Plates were processed for analysis by the addition of 150 μL/well MSD Read 4× Buffer T with surfactant (catalog no. R92TC-2; diluted 1:3 in deionized water) and were read on the SECTOR Imager 6000.

Axin2 in SW480 cells = assay: cells; assay type: cell-based; settings: Homo sapiens, read-out: Axin2 384 IF EC50 IP
Experimental: Using a VPrep, 10 μL of compound/controls was transferred from the compound plate to 60 μL in the cell plate (final 0.5% DMSO, 70 μL). The mixture was incubated for 24 hours at 37° C. at 5% CO2.
The extra media was tapped out. 50 μL of 4% paraformaldehyde (Fisher, AA433689M), 0.1% Triton (Sigma, X100-100 ML) in PBS were added, and the mixture was incubated for 15 minutes at room temperature. […] The extra media was tapped out and to this was added 50 μL of buffer containing Axin2 Antibody (Sigma, SAB1100677-200 µL) at 1:10000 in PBS, 0.1% Tween-20, 1% Normal Goat Serum. The mixture was incubated for 2 hours at room temperature or overnight at 4° C. The cells were then washed twice with PBS, 0.1% Tween-20, and 1% Normal Goat Serum. […] The mixture was then incubated for 30 minutes at room temperature. The cells were then washed twice with PBS, 0.1% Tween-20, and 1% Normal Goat Serum. 50-100 μL PBS was added, and the mixture was covered with a plate seal (Fisher, NC9425162). An ArrayScan (a variation of the compartmental analysis protocol was optimized) was used to scan the plates, and data was analyzed using MEAN_RingSpotAvgIntenCh2). The Axin2 accumulation POC was calculated, and the EC50 was determined using Genedata Screener software to report Axin2 activity.

[2] = molecular target: 6×HIS-tankyrase 1 (1091-1325) (Homo sapiens (Human), UniProt O95271); assay: biochemical; assay type: biochemical; settings: […] enzyme, 400 nM NAD, 60 minutes at room temperature; read-out: TNKS1 IP IC50
Chain of 6×HIS-tankyrase 1 (1091-1325) (O95271 1091-1325): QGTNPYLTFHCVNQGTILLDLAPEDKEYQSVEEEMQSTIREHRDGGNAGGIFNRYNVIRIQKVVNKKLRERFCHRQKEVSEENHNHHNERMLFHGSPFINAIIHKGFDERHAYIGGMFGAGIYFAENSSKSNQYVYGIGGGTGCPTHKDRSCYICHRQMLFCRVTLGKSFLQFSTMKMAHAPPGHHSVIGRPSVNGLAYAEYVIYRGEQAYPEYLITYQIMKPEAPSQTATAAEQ

[3] = SW480 cells, 40 to 48 hours, top concentration 10 μM, read-out: SW480-Total β-Catenin IC50 IP
[4] = SW480, 24 h, SW480 cells, 24 hours

| SMILES | pIC50 [1, 3] | pEC50 (Axin2 in SW480 cells; [4]) | pEC50 (Axin2 in SW480 cells; SW480 cells, 24 hours) | other results |
| --- | --- | --- | --- | --- |
| CC1(C)OC(=O)N([C@H]2CC[C@H](n3c(=O)[nH]c4cncnc43)CC2)[C@H]1c1ccccc1 [Example 50, (S)-5,5-dimethyl-3-((1r,4S)-4-(8-oxo-7H-purin-9(8H)-yl)cyclohexyl)-4-phenyloxazolidin-2-one] | 6.53 | 6.41 | – | – |
| CC1(C)OC(=O)N([C@H]2CC[C@H](n3c(=O)[nH]c4cccnc43)CC2)C1c1ccccc1 (stereo partly drawn) [Example 36, (R+S) 5,5-dimethyl-3-((1r,4r)-4-(2-oxo-1H-imidazo[4,5-b]pyridin-3(2H)-yl)cyclohexyl)-4-phenyloxazolidin-2-one] | 5.91 | 5.36 | – | – |
| CC1(C)OC(=O)N([C@H]2CC[C@H](c3cnc(N)c(-c4ncccn4)c3)CC2)[C@H]1c1ccccc1 [Example 74, (S)-3-((1r,4S)-4-(6-amino-5-(pyrimidin-2-yl)pyridin-3-yl)cyclohexyl)-5,5-dimethyl-4-phenyloxazolidin-2-one] | – | – | – | pIC50 ([1]; SW480, read-out: SW480-Total β-Catenin IC50 IP): 7.04; pEC50 (Axin2 in SW480 cells; SW480, 24 h): 7.28 |
| CC1(C)OC(=O)N([C@H]2CC[C@H](n3c(=O)[nH]c4c(C#N)cccc43)CC2)[C@H]1c1ccccc1 [Example 51, 1-((1S,4r)-4-((S)-5,5-dimethyl-2-oxo-4-phenyloxazolidin-3-yl)cyclohexyl)-2-oxo-2,3-dihydro-1H-benzo[d]imidazole-4-carbonitrile] | 6.56 | – | 6.34 | – |
| CC1(C)OC(=O)N(c2ccc(-c3cc(-c4ncco4)c[nH]c3=O)cc2)[C@H]1c1ccccc1 [Example 116, (S)-5,5-dimethyl-3-(4-(5-(oxazol-2-yl)-2-oxo-1,2-dihydropyridin-3-yl)phenyl)-4-phenyloxazolidin-2-one] | 6.04 | < 5.20 | – | – |
| CC1(C)OC(=O)N([C@H]2CC[C@H](n3c(=O)[nH]c4cc(C#N)cnc43)CC2)[C@H]1c1ccccc1 [Example 57, 3-((1S,4r)-4-((S)-5,5-dimethyl-2-oxo-4-phenyloxazolidin-3-yl)cyclohexyl)-2-oxo-2,3-dihydro-1H-imidazo[4,5-b]pyridine-6-carbonitrile] | 6.76 | – | 6.10 | – |
| CC1(C)OC(=O)N([C@H]2CC[C@H](n3c(=O)[nH]c4ncccc43)CC2)[C@@H]1c1ccccc1 [Example 31, (R)-5,5-dimethyl-3-((1r,4R)-4-(2-oxo-2,3-dihydro-1H-imidazo[4,5-b]pyridin-1-yl)cyclohexyl)-4-phenyloxazolidin-2-one] | 5.58 | 4.76 | – | – |
| CC1(C)OC(=O)N([C@H]2CC[C@H](n3c(=O)[nH]c4cc(Br)cnc43)CC2)[C@H]1c1ccccc1 [Example 56, (S)-3-((1r,4S)-4-(6-bromo-2-oxo-1H-imidazo[4,5-b]pyridin-3(2H)-yl)cyclohexyl)-5,5-dimethyl-4-phenyloxazolidin-2-one] | 6.19 | – | 6.17 | – |
| CC1(C)OC(=O)N([C@H]2CC[C@H](n3c(=O)[nH]c4cnccc43)CC2)[C@@H]1c1ccccc1 [Example 24, (R)-5,5-dimethyl-3-((1 r,4R)-4-(2-oxo-2,3-dihydro-1H-imidazo[4,5-c]pyridin-1-yl)cyclohexyl)-4-phenyloxazolidin-2-one] | 5.83 | 5.33 | – | – |
| CC1(C)OC(=O)N([C@H]2CC[C@H](n3c(=O)[nH]c4c(F)c(C#N)ccc43)CC2)[C@H]1c1ccccc1 [Example 60, 1-((1S,4r)-4-((S)-5,5-dimethyl-2-oxo-4-phenyloxazolidin-3-yl)cyclohexyl)-4-fluoro-2-oxo-2,3-dihydro-1H-benzo[d]imidazole-5-carbonitrile] | 7.12 | – | 7.21 | – |
| CC1(C)OC(=O)N(c2ccc(C(=O)Nc3cccc4cccnc34)cc2)[C@@H]1c1ccncc1 [Example 125, (R)-4-(5,5-dimethyl-2-oxo-4-(pyridin-4-yl)oxazolidin-3-yl)-N-(quinolin-8-yl)benzamide] | – | < 4.60 | – | pIC50 [2]: 5.10 |
| CC1(C)OC(=O)N(c2ccc(C(=O)Nc3cccc4cccnc34)cc2)[C@@H]1c1cccc(F)c1 [Example 109, (R)-4-(4-(3-fluorophenyl)-5,5-dimethyl-2-oxooxazolidin-3-yl)-N-(quinolin-8-yl)benzamide] | – | < 4.60 | – | pIC50 [2]: 5.26 |
